Patent US20220185793A1, “COMPOUNDS FOR THE TREATMENT OF ONCOVIRUS INDUCED CANCER AND METHODS OF USE THEREOF” (Cellestia Biotech AG, priority 2019, published 2022)

Columns and labels:
[1] = tested on: EBV positive human B HG-3 cells; assay: PrestoBlue proliferation assay in HG-3 cells; format: cell-based; settings: 72 hours; for anti-proliferative effect on HG-3 cells (in words): PrestoBlue, FIG. 2 and Table 4; for IC50: Homo sapiens, concentration range 0.03-100 μM, PrestoBlue assay, read-out: Anti-proliferative IC50 values (μM) in HG-3 cells
Experimental: (§1) One million human EBV positive lymphoma cell lines HG3 and LCL070903 (Rosén et al., 2012) were cultured in RPMI1640 media supplemented with 10% FCS. […] Following treatment cells were harvested and washed with 1× PBS. Total RNA was extracted as described below.
(§2) Alamarblue® and PrestoBlue proliferation assays were performed to determine the growth kinetics of EBV inhibitor treated cells. Alamar blue® and PrestoBlue consists of a cell permeable substrate resazurin. In metabolically active and proliferating cells, resazurin is converted to resorufin due to an intrinsic reducing power of live cells and produces a red fluorescence. Therefore production of resorufin serves as an indicator of the viability of the cell population.
(§3) Proliferation assays were performed by seeding 5000 cells/well in a 96 well plate. […] Each concentration was tested in 4 replicates. To determine the growth kinetics, 10 μl of Alamar blue® or PrestoBlue (Invitrogen) was added to each well and incubated for 4 hours. Readout was taken using Tecan F500 (Tecan) multiplate reader or Varioskan LUX (ThermoFisher) multiplate reader.
In brief, HG-3 cells were plated in a 96 well plate and treated with an increasing concentration of compounds.

[2] = tested on: BMI1 (EBV target gene); assay: EBV target gene downregulation (qPCR) in LCL070903 cells: BMI1; format: cell-based, human; settings: 48 hours; for potency in downregulating EBV pathway (BMI1) compared with 6-(4-tert-butylphenoxy)pyridin-3-amine (in words): 10 μM, qRT-PCR, FIG. 3; for inhibition at 10 µM: Homo sapiens, mRNA by qPCR, Table 6
Experimental: EBV positive human B LCL070903 cells were treated with 10 μM of the mentioned compounds for 48 hours. Following treatment, total RNA was extracted and mRNA expression analysed by qRT-PCR.
(§4) One million human EBV positive lymphoma cell lines HG3 and LCL070903 (Rosén et al., 2012) were cultured in RPMI1640 media supplemented with 10% FCS. For RNA expression analysis cells were treated with compounds at 10 μM concentration and for proliferation assay cells were treated at a concentration range of 0.01-100 μM. Following treatment cells were harvested and washed with 1× PBS. Total RNA was extracted as described below.
(§5) Total RNA was extracted from cells using TRIzol® extraction kit (Invitrogen). Briefly, 1×10^6 cells were washed with ice-cold 1× PBS and lysed in 1 ml of TRIzol® solution for 5 minutes at room temperature to dissociate nucleoprotein complexes. Lysed cells were then treated with 200 μl of chloroform and shaked vigorously for 15-30 seconds and incubated at room temperature for 2-3 minutes. The samples were centrifuged at 14000 rpm using Eppendorf table top centrifuge for 10 minutes at 4° C. Following centrifugation, upper aqueous phase was transferred to new eppendorf tubes. To precipitate total RNA 500 μl of […] was added to the separated aqueous phase and incubated at room temperature for 10 minutes. A RNA pellet was obtained by centrifuging the samples at 4° C. for 10 minutes. RNA pellet obtained was washed with 1 ml ice cold 75% ethanol and spun down at 14000 rpm at 4° C. RNA pellet was dried off of excess of ethanol and resuspended in 40 IA DPEC water.
(§6) Total RNA extracted from the cell was used to synthesize cDNA by reverse transcription reaction. Reverse transcription was performed according to one of the two following protocols.
(§7) In first protocol, SuperScript™ RT (Invitrogen) was used for reverse transcription reaction. RNA concentration was measured using NanoDrop®ND-1000 spectrophotometer (Witec AG) and 500 ng of total RNA was mixed with a 10 mM mix of dNTPs and 100 ng of random primers. The reaction mix was incubated at 65° C. for 5 minutes and quickly incubated on ice for 1 minute. Following incubation on ice, 5× first strand buffer and 0.1M DTT were added and mix was incubated for 2 minutes at 25° C. To start the reverse transcription reaction, 200U of SuperScrip™ II RT was added to the reaction mix and incubated at 42° C. for 50 minutes. The reaction was stopped by incubating the reaction mix at 75° C. for 15 minutes.
(§8) In second protocol, reverse transcription was performed using PrimeScript RT Master Mix (Takara). RNA concentration was measured using NanoDrop®ND-1000 spectrophotometer (Witec AG) and 1 μg of total RNA was mixed with 4 μL 5X PrimeScript RT Master Mix in a total reaction volume of 20 μL. The reaction mix was incubated at 37° C. for 15 minutes followed by heat inactivation at 85° C. for 5 seconds.
(§9) QRT-PCR was carried out using 7900 HT Fast Real-Time PCR system (Applied Biosystems) or QuantStudio 3 system (ThermoFisher). Briefly, 12.5 ng of template cDNA was used with a primer concentration of 0.5 μM each and lx SYBR Green dye in a final volume of 10 μL in a 96 well or 384 well plate format.
(§10) Upon infection of human cells, EBV is known to induce cancerous transformation of cells via upregulation of host as well as viral genes (e.g LMP1, EBNA2, BATF1, BMI1 and CD21). To determine the ability of compounds to downregulate EBV driven gene expression, HG-3 and LCL070903 cells were treated with selected compounds and percentage inhibition of EBV target genes was determined by quantitative PCR. As shown in Table 5 and Table 6, compounds down regulate EBV target genes such as BMI1 in HG-3 and LCL070903 cells, respectively (FIGS. 3 and 4).

[3] = tested on: BMI1 (EBV target gene); assay: EBV target gene downregulation (qPCR) in HG-3 cells: BMI1; format: cell-based, human; settings: 48 hours; for potency in downregulating EBV pathway (BMI1) compared with 6-(4-tert-butylphenoxy)pyridin-3-amine (in words): 10 μM, qRT-PCR, FIG. 4; for inhibition at 10 µM: Homo sapiens, mRNA by qPCR, Table 5
Experimental: EBV positive human B HG-3 cells were treated with 10 μM of the mentioned compounds for 48 hours. Following treatment, total RNA was extracted and mRNA expression analysed by qRT-PCR.
as §4, §5, §6, §7, §8, §9, §10

[4] = tested on: LMP1; assay: EBV target gene downregulation (qPCR) in LCL070903 cells: LMP1; format: cell-based; settings: Homo sapiens, mRNA by qPCR, Table 6
Experimental: as §4
(§11) Total RNA was extracted from cells using TRIzol® extraction kit (Invitrogen). Briefly, 1×10^6 cells were washed with ice-cold 1× PBS and lysed in 1 ml of TRIzol® solution for 5 minutes at room temperature to dissociate nucleoprotein complexes. Lysed cells were then treated with 200 μl of chloroform and shaked vigorously for 15-30 seconds and incubated at room temperature for 2-3 minutes. […]
(§12) In first protocol, SuperScript™ RT (Invitrogen) was used for reverse transcription reaction. RNA concentration was measured using NanoDrop®ND-1000 spectrophotometer (Witec AG) and 500 ng of total RNA was mixed with a 10 mM mix of dNTPs and 100 ng of random primers. […]
(§13) In second protocol, reverse transcription was performed using PrimeScript RT Master Mix (Takara). RNA concentration was measured using NanoDrop®ND-1000 spectrophotometer (Witec AG) and 1 μg of total RNA was mixed with 4 μL 5X PrimeScript RT Master Mix in a total reaction volume of 20 μL. […]

[5] = tested on: EBNA2; assay: EBV target gene downregulation (qPCR) in LCL070903 cells: EBNA2; format: cell-based; settings: Homo sapiens, mRNA by qPCR, Table 6
Experimental: as §4, §5, §6, §7, §8, §9, §10

[6] = tested on: CD21; assay: EBV target gene downregulation (qPCR) in LCL070903 cells: CD21; format: cell-based; settings: Homo sapiens, mRNA by qPCR, Table 6
Experimental: as §4
as §5, with “A RNA pellet was obtained by centrifuging the samples at 4° C. for 10 minutes. RNA pellet obtained was washed with 1 ml ice cold 75% ethanol and spun down at 14000 rpm at 4° C. RNA pellet was dried off of excess of ethanol and resuspended in 40 IA DPEC water.” left out
as §12, §13
as §10, with “As shown in Table 5 and Table 6, compounds down regulate EBV target genes such as BMI1 in HG-3 and LCL070903 cells, respectively (FIGS. 3 and 4).” left out

[7] = tested on: EBNA2; assay: EBV target gene downregulation (qPCR) in HG-3 cells: EBNA2; format: cell-based; settings: Homo sapiens, mRNA by qPCR, Table 5
Experimental: as §4, §5, §6, §7, §8, §9
(§14) To determine the ability of compounds to downregulate EBV driven gene expression, HG-3 cells were treated with selected compounds and percentage inhibition of EBV target genes was determined by quantitative PCR. […] To further determine the anti-oncoviral specificity of compounds, these compounds were tested for their ability to downregulate a NOTCH target gene HES1 in a NOTCH1 positive (EBV negative) human leukemic cell line RPMI8402.
as §10

[8] = tested on: CD21; assay: EBV target gene downregulation (qPCR) in HG-3 cells: CD21; format: cell-based; settings: Homo sapiens, mRNA by qPCR, Table 2
Experimental: as §4, §11, §12, §13

[9] = tested on: NOTCH target gene HES1; assay: NOTCH target gene HES1 downregulation in RPMI 8402 cells; format: cell-based, human; parameters: Percentage inhibition of NOTCH target gene HES1: concentration or dose not given beside the values; settings: RPMI 8402 cells (NOTCH1 positive, EBV negative)
Experimental: as §5, §6, §9, §14

[10] = tested on: BATF1; assay: EBV target gene downregulation (qPCR) in HG-3 cells: BATF1; format: cell-based; settings: Homo sapiens, mRNA by qPCR, Table 2
Experimental: as §4, §11, §12, §13

[11] = tested on: EBV positive human lymphoma HG-3 cells; assay: Alamar blue proliferation assay in HG-3 cells; format: cell-based; settings: 72 hours
Experimental: as §1, §2, §3
In order to determine anti-cancer activity of compounds in oncoviral driven cells, an EBV infected human Chronic Lymphocytic Leukemia cell line HG-3 was used (Rosen et al., 2012). In brief, HG-3 cells were plated in a 96 well plate and treated with an increasing concentration of compounds.

IC50 ([11]; Homo sapiens, concentration range 0.01-10 μM, Alamar blue assay, read-out: Anti-proliferative IC50 values) | Structure (SMILES) | anti-proliferative effect on HG-3 cells (in words) [1] | IC50 [1] | potency in downregulating EBV pathway (BMI1) compared with 6-(4-tert-butylphenoxy)pyridin-3-amine (in words) [2] | inhibition at 10 µM [2] | potency in downregulating EBV pathway (BMI1) compared with 6-(4-tert-butylphenoxy)pyridin-3-amine (in words) [3] | inhibition at 10 µM [3] | inhibition at 10 µM [4] | inhibition at 10 µM [5] | inhibition at 10 µM [6] | inhibition at 10 µM [7] | inhibition at 10 µM [8] | Percentage inhibition of NOTCH target gene HES1 [9] | downregulation of NOTCH target gene HES1 (in words) [9] | inhibition at 10 µM [10] | anti-proliferative effect on HG-3 cells (in words) ([11]; Alamar blue, FIG. 1 and Table 1)
 | c1ccc(-c2ccc(Oc3ccc(NCc4cccnc4)cn3)cn2)cc1 [Example 21, 6-((6-Phenylpyridin-3-yl)oxy)-N-(pyridin-3-ylmethyl)pyridin-3-amine] | demonstrate anti-proliferative effect | 3.8 µM | enhanced potency | 51% | enhanced potency | 47% | 12% | 50% | 9% |  |  |  |  |  | 
 | Cc1ccccc1-c1ccc(Oc2ccc(NCc3cccnc3)cc2)cc1C [Example 28, 4-((2,2′-Dimethyl-[1,1′-biphenyl]-4-yl)oxy)-N-(pyridin-3-ylmethy)aniline] | demonstrate anti-proliferative effect | 1.5 µM | enhanced potency | 61% | enhanced potency | 51% | 24% | 43% | 1% | 36% |  |  |  |  | 
2.2 µM | CC(C)(C)c1ccc(Oc2ccc(NCc3cccnc3)cn2)cc1 [Example 2, 6-(4-(tert-Butyl)phenoxy)-N-(pyridin-3-ylmethyl)pyridin-3-amine] |  |  |  |  |  |  |  |  |  |  | > 90% | 0% | do not modulate expression of this gene | > 90% | demonstrate anti-proliferative effect
